Results on 14 compounds are retold here after patent US8613914B2, “Peptidomimetic sulfamide compounds and antiviral uses thereof” (Novartis AG, priority 2009, dated 2013).

SMILES strings stand for the structures.

Sequence of HCV NS3-4A serine protease (full-length NS3-4A protein) (P26664 1027-1657): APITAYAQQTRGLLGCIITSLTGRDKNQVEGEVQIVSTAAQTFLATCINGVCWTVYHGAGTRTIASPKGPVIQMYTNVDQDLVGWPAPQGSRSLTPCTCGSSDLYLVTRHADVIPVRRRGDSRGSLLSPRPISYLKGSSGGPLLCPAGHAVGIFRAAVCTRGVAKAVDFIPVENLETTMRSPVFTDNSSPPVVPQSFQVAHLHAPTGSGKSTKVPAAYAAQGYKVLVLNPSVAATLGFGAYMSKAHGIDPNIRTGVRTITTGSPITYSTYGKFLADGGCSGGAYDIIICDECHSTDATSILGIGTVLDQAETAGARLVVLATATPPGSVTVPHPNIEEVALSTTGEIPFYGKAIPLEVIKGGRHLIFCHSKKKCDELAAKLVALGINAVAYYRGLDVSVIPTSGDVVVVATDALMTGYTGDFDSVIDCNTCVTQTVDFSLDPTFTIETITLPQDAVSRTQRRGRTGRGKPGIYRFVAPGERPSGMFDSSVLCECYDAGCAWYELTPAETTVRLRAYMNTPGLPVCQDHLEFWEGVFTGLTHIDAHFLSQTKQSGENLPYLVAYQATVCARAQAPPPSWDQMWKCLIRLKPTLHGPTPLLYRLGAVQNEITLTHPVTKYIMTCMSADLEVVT
Sequence of HCV NS3-4A serine protease (full-length NS3-4A protein) (P26664 1658-1711 partner): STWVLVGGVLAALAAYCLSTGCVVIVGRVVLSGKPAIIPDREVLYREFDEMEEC

The target in the test is HCV NS3-4A serine protease (full-length NS3-4A protein) (Hepatitis C virus genotype 1a (isolate 1) (HCV), UniProt P26664). As to the kind of experiment: HCV NS3-4A protease assay. Type of test: biochemical, HCV genotype 1a. The settings on record: strain HCV-1, fluorogenic peptide substrate, read-out: Protease assay Ex. 12 IC50. On the procedure:
The inhibitory activity of certain compounds of Table A against HCV NS3-4A serine protease is determined in a homogenous assay using the full-length NS3-4A protein (genotype 1a, strain HCV-1) and a commercially available internally-quenched fluorogenic peptide substrate as described by Taliani, M., et al. 1996 Anal. Biochem. 240:60-67, which is incorporated by reference in its entirety.
Regarding `C=C[C@@H]1C[C@]1(NC(=O)[C@@H]1C[C@@]2(CN1C(=O)[C@@H](NC(=O)[C@@H](NC(=O)[C@@H]1CCCCN1CC)C1CCCCC1)C1(C)CCOCC1)C(C)(C)C21CCC1)C(=O)NS(=O)(=O)N(CC)CC` [Compound 151, (5R,8S)-7-[(2S)-2-{[(2S)-2-cyclohexyl-2-({[(2S)-1-ethylpiperidin-2-yl]carbonyl}amino)acetyl]amino}-2-(4-methyltetrahydro-2H-pyran-4-yl)acetyl]-N-[(1R,2S)-1-{[(diethylamino)sulfonyl]carbamoyl}-2-vinylcyclopropyl]-10,10-dimethyl-7-azadispiro[3.0.4.1]decane-8-carboxamide], the half-maximal inhibitory concentration (IC50) was 2 nM.

In the case of `C=C[C@@H]1C[C@]1(NC(=O)[C@@H]1C[C@@]2(CN1C(=O)[C@@H](NC(=O)[C@@H](NC(=O)[C@@H]1CCCCN1C(C)C)C1(C)CCCCC1)C1(C)CCOCC1)C(C)(C)C21CCC1)C(=O)NS(=O)(=O)N(CC)CC` [Compound 152, (5R,8S)-N-[(1R,2S)-1-{[(diethylamino)sulfonyl]carbamoyl}-2-vinylcyclopropyl]-7-[(2S)-2-{[(2S)-2-({[(2S)-1-isopropylpiperidin-2-yl]carbonyl}amino)-2-(1-methylcyclohexyl)acetyl]amino}-2-(4-methyltetrahydro-2H-pyran-4-yl)acetyl]-10,10-dimethyl-7-azadispiro[3.0.4.1]decane-8-carboxamide], the IC50 worked out at 1.1 nM.

In the case of `C=C[C@@H]1C[C@]1(NC(=O)[C@@H]1C[C@@]2(CN1C(=O)[C@@H](NC(=O)[C@@H](NC(=O)[C@@H]1CCCN1CC)C1(C)CCCCC1)C1(C)CCOCC1)C(C)(C)C21CCC1)C(=O)NS(=O)(=O)N(CC)CC` [Compound 153, (5R,8S)-N-[(1R,2S)-1-{[(diethylamino)sulfonyl]carbamoyl}-2-vinylcyclopropyl]-7-[(2S)-2-{[(2S)-2-({[(2S)-1-ethylpyrrolidin-2-yl]carbonyl}amino)-2-(1-methylcyclohexyl)acetyl]amino}-2-(4-methyltetrahydro-2H-pyran-4-yl)acetyl]-10,10-dimethyl-7-azadispiro[3.0.4.1]decane-8-carboxamide], the IC50 was determined as 1.8 nM.

As to `C=C[C@@H]1C[C@]1(NC(=O)[C@@H]1C[C@@]2(CN1C(=O)[C@@H](NC(=O)[C@@H](NC(=O)[C@@H]1CCCN1CC)C1CCCCC1)C1(C)CCOCC1)C(C)(C)C21CCC1)C(=O)NS(=O)(=O)N(CC)CC` [Compound 154, (5R,8S)-7-[(2S)-2-{[(2S)-2-cyclohexyl-2-({[(2S)-1-ethylpyrrolidin-2-yl]carbonyl}amino)acetyl]amino}-2-(4-methyltetrahydro-2H-pyran-4-yl)acetyl]-N-[(1R,2S)-1-{[(diethylamino)sulfonyl]carbamoyl}-2-vinylcyclopropyl]-10,10-dimethyl-7-azadispiro[3.0.4.1]decane-8-carboxamide], the IC50 worked out at 2.8 nM.

In the case of `C=C[C@@H]1C[C@]1(NC(=O)[C@@H]1C[C@@]2(CN1C(=O)[C@@H](NC(=O)[C@@H](NC(=O)[C@@H]1CCCCN1C(C)C)C1CCCCC1)C(C)(C)C)C(C)(C)C21CCC1)C(=O)NS(=O)(=O)N(CC)CC(F)F` [Compound 155, (5R,8S)-7-[(2S)-2-{[(2S)-2-cyclohexyl-2-({[(2S)-1-isopropylpiperidin-2-yl]carbonyl}amino)acetyl]amino}-3,3-dimethylbutanoyl]-N-[(1R,2S)-1-({[(2,2-difluoroethyl)(ethyl)amino]sulfonyl}carbamoyl)-2-vinylcyclopropyl]-10,10-dimethyl-7-azadispiro[3.0.4.1]decane-8-carboxamide], the 50% inhibitory concentration (IC50) came to 4.4 nM.

With `C=C[C@@H]1C[C@]1(NC(=O)[C@@H]1C[C@@]2(CN1C(=O)[C@@H](NC(=O)[C@@H](NC(=O)[C@@H]1CCCCN1C(C)C)C1CCCCC1)C(C)(C)C)C(C)(C)C21CCC1)C(=O)NS(=O)(=O)N(CC)CCF` [Compound 156, (5R,8S)-7-[(2S)-2-{[(2S)-2-cyclohexyl-2-({[(2S)-1-isopropylpiperidin-2-yl]carbonyl}amino)acetyl]amino}-3,3-dimethylbutanoyl]-N-[(1R,2S)-1-({[ethyl(2-fluoroethyl)amino]sulfonyl}carbamoyl)-2-vinylcyclopropyl]-10,10-dimethyl-7-azadispiro[3.0.4.1]decane-8-carboxamide], the half-maximal inhibitory concentration (IC50) was determined as 1.3 nM.

Take `C=C[C@@H]1C[C@]1(NC(=O)[C@@H]1C[C@@]2(CN1C(=O)[C@@H](NC(=O)[C@@H](NC(=O)[C@@H]1CCCN1CC)C1(C)CCOCC1)C1(C)CCCCC1)C(C)(C)C21CCC1)C(=O)NS(=O)(=O)N(CC)CC` [Compound 157, (5R,8S)-N-[(1R,2S)-1-{[(diethylamino)sulfonyl]carbamoyl}-2-vinylcyclopropyl]-7-[(2S)-2-{[(2S)-2-({[(2S)-1-ethylpyrrolidin-2-yl]carbonyl}amino)-2-(4-methyltetrahydro-2H-pyran-4-yl)acetyl]amino}-2-(1-methylcyclohexyl)acetyl]-10,10-dimethyl-7-azadispiro[3.0.4.1]decane-8-carboxamide]: the concentration for half-maximal inhibition (IC50) came out at 1 nM.

Consider `C=C[C@@H]1C[C@]1(NC(=O)[C@@H]1C[C@@]2(CN1C(=O)[C@@H](NC(=O)[C@@H](NC(=O)[C@@H]1CCCCN1C(C)C)C1(C)CCOCC1)C1(C)CCCCC1)C(C)(C)C21CCC1)C(=O)NS(=O)(=O)N(CC)CC` [Compound 158, (5R,8S)-N-[(1R,2S)-1-{[(diethylamino)sulfonyl]carbamoyl}-2-vinylcyclopropyl]-7-[(2S)-2-{[(2S)-2-({[(2S)-1-isopropylpiperidin-2-yl]carbonyl}amino)-2-(4-methyltetrahydro-2H-pyran-4-yl)acetyl]amino}-2-(1-methylcyclohexyl)acetyl]-10,10-dimethyl-7-azadispiro[3.0.4.1]decane-8-carboxamide], for which the IC50 came out at 22 nM.

Consider `C=C[C@@H]1C[C@]1(NC(=O)[C@@H]1C[C@@]2(CN1C(=O)[C@@H](NC(=O)[C@@H](NC(=O)[C@@H]1CCCN1CC)C1(C)CCCCC1)C1(C)CCCCC1)C(C)(C)C21CCC1)C(=O)NS(=O)(=O)N(CC)CC` [Compound 159, (5R,8S)-N-[(1R,2S)-1-{[(diethylamino)sulfonyl]carbamoyl}-2-vinylcyclopropyl]-7-[(2S)-2-{[(2S)-2-({[(2S)-1-ethylpyrrolidin-2-yl]carbonyl}amino)-2-(1-methylcyclohexyl)acetyl]amino}-2-(1-methylcyclohexyl)acetyl]-10,10-dimethyl-7-azadispiro[3.0.4.1]decane-8-carboxamide], for which the 50% inhibitory concentration (IC50) amounted to 11 nM.

`C=C[C@@H]1C[C@]1(NC(=O)[C@@H]1C[C@@]2(CN1C(=O)[C@@H](NC(=O)[C@@H](NC(=O)[C@@H]1CCCCN1C(C)C)C1(C)CCCCC1)C1(C)CCCCC1)C(C)(C)C21CCC1)C(=O)NS(=O)(=O)N(CC)CC` [Compound 160, (5R,8S)-N-[(1R,2S)-1-{[(diethylamino)sulfonyl]carbamoyl}-2-vinylcyclopropyl]-7-[(2S)-2-{[(2S)-2-({[(2S)-1-isopropylpiperidin-2-yl]carbonyl}amino)-2-(1-methylcyclohexyl)acetyl]amino}-2-(1-methylcyclohexyl)acetyl]-10,10-dimethyl-7-azadispiro[3.0.4.1]decane-8-carboxamide]: the concentration for half-maximal inhibition (IC50) stood at 3 nM.

As for `C=C[C@@H]1C[C@]1(NC(=O)[C@@H]1C[C@@]2(CN1C(=O)[C@@H](NC(=O)[C@@H](NC(=O)c1[nH]c(C)c(C)c1C(C)=O)C(C)(C)C)C(C)(C)C)C(C)(C)C21CCC1)C(=O)NS(=O)(=O)N1CCCC1` [Compound 161, (5R,8S)-7-[(2S)-2-{[(2S)-2-{[(3-acetyl-4,5-dimethyl-1H-pyrrol-2-yl)carbonyl]amino}-3,3-dimethylbutanoyl]amino}-3,3-dimethylbutanoyl]-10,10-dimethyl-N-{(1R,2S)-1-[(pyrrolidin-1-ylsulfonyl)carbamoyl]-2-vinylcyclopropyl}-7-azadispiro[3.0.4.1]decane-8-carboxamide], the IC50 stood at 65 nM.

In the case of `C=C[C@@H]1C[C@]1(NC(=O)[C@@H]1C[C@@]2(CN1C(=O)[C@@H](NC(=O)[C@@H](NC(=O)[C@@H]1CCCCN1C(C)C)C1CCCCC1)C(C)(C)C)C(C)(C)C21CCC1)C(=O)NS(=O)(=O)N(C)C` [Compound 162, (5R,8S)-7-[(2S)-2-{[(2S)-2-cyclohexyl-2-{[(1-isopropylpiperidin-2-yl)carbonyl]amino}acetyl]amino}-3,3-dimethylbutanoyl]-N-[(1R,2S)-1-{[(dimethylamino)sulfonyl]carbamoyl}-2-vinylcyclopropyl]-10,10-dimethyl-7-azadispiro[3.0.4.1]decane-8-carboxamide], the IC50 came out at 0.9 nM.

Take `C=CC1CC1(NC(=O)[C@@H]1C[C@@]2(CN1C(=O)[C@@H](NC(=O)[C@@H](NC(=O)C1CCCCN1C(C)C)C(C)(C)C)C(C)(C)C)C(C)(C)C21CCC1)C(=O)NS(=O)(=O)N1CCC[C@H]1CO` (stereo partly drawn) [Compound 163, (5R,8S)-N-[1-({[(2S)-2-(hydroxymethyl)pyrrolidin-1-yl]sulfonyl}carbamoyl)-2-vinylcyclopropyl]-7-[(2S)-2-{[(2S)-2-{[(1-isopropylpiperidin-2-yl)carbonyl]amino}-3,3-dimethylbutanoyl]amino}-3,3-dimethylbutanoyl]-10,10-dimethyl-7-azadispiro[3.0.4.1]decane-8-carboxamide]: the IC50 came out at 1500 nM.

For `C=CC1CC1(NC(=O)[C@@H]1C[C@@]2(CN1C(=O)[C@@H](NC(=O)[C@@H](NC(=O)C1CCCCN1C(C)C)C1CCCCC1)C(C)(C)C)C(C)(C)C21CCC1)C(=O)NS(=O)(=O)N1CC(F)(F)C1` (stereo partly drawn) [Compound 164, (5R,8S)-7-[(2S)-2-{[(2S)-2-cyclohexyl-2-{[(1-isopropylpiperidin-2-yl)carbonyl]amino}acetyl]amino}-3,3-dimethylbutanoyl]-N-(1-{[(3,3-difluoroazetidin-1-yl)sulfonyl]carbamoyl}-2-vinylcyclopropyl)-10,10-dimethyl-7-azadispiro[3.0.4.1]decane-8-carboxamide], the IC50 was 8 nM.

The IC50 is the concentration that inhibits the measured activity by half.
